PMC5869712 (Scientific Reports, 2018)

Legend:
[1] = Pharmacokinetics in Sprague Dawley rats; format: in vivo
B-Raf = target: T1, B-Raf (Homo sapiens, UniProt P15056); test: Eurofins Kinase Profiler panel; format: biochemical; settings: read-out: % inhibition (1μM), DMSO control=100%, lower=stronger
T1 construct: purchased Eurofins KinaseProfiler (Eurofins Pharma Discovery Services UK, Dundee); JAK3 also ChemPartner

Flt3 = target: T2, Flt3 (Homo sapiens, UniProt P36888); test: Eurofins Kinase Profiler panel; format: biochemical; settings: read-out: % inhibition (1μM), DMSO control=100%, lower=stronger
T2 construct: purchased Eurofins Pharma Discovery Services UK Limited (Kinase Profiler screening platform)

JAK3 [2] = target: T3, JAK3 (Homo sapiens, UniProt P52333); test: Eurofins Kinase Profiler panel; format: biochemical; settings: read-out: % inhibition (1μM), DMSO control=100%, lower=stronger, text: residual kinase activity
T3 construct: ChemPartner (contract assay service)
T3 sequence (P52333 1-1124): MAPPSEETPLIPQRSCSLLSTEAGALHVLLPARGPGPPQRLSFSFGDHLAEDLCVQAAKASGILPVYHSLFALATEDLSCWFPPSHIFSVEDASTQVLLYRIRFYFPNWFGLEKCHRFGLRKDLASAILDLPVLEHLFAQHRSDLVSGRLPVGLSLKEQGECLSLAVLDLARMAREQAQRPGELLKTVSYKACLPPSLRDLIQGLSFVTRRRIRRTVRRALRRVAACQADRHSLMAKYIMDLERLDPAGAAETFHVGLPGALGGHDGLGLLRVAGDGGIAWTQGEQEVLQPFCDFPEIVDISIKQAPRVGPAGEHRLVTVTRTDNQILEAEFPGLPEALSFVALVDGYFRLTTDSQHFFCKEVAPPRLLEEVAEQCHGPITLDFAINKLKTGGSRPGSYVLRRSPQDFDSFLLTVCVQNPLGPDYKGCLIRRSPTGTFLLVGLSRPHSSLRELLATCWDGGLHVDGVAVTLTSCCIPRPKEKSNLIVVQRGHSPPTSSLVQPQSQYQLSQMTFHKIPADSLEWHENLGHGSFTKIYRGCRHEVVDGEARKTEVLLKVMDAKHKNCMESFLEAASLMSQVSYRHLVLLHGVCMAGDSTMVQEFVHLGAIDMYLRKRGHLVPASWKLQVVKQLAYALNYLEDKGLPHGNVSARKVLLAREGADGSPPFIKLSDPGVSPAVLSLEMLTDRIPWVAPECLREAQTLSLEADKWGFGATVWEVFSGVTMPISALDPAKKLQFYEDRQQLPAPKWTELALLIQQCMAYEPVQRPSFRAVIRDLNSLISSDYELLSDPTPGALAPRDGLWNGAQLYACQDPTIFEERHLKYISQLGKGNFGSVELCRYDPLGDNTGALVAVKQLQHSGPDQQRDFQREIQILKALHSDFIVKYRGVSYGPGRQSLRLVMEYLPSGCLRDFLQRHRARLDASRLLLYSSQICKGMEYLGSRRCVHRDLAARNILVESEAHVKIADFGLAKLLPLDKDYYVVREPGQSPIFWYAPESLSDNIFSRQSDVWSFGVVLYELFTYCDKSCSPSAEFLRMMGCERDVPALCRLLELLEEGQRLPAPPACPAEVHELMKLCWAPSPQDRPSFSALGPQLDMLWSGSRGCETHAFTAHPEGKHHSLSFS

JAK3 [3] = target: T3, JAK3; test: Cys-containing kinase family panel (EurofinsCerep); format: biochemical
MKK4 = target: T4, MKK4 (Mus musculus, UniProt P47809); test: Eurofins Kinase Profiler panel; format: biochemical; settings: read-out: % inhibition (1μM), DMSO control=100%, lower=stronger
T4 construct: purchased Eurofins KinaseProfiler (Eurofins Pharma Discovery Services UK, Dundee); JAK3 also ChemPartner

Lck = target: T5, Lck (Homo sapiens, UniProt P06239); test: Eurofins Kinase Profiler panel; format: biochemical; settings: read-out: % inhibition (1μM), DMSO control=100%, lower=stronger
T5 construct: purchased Eurofins KinaseProfiler (Eurofins Pharma Discovery Services UK, Dundee); JAK3 also ChemPartner

JAK3 (Cys909) = JAK3 (Cys909) (Homo sapiens, UniProt P52333); test: LC-MS/MS mapping of covalent modification; format: binding; settings: LC-MS/MS after incubation of JAK3 with compound
Description: […]. Then, trypsin was added at a 1:50 trypsin-to-protein mass ratio for the first digestion overnight and a 1:100 trypsin-to-protein mass ratio for a second 4-h digestion. The digested peptides were dried with a SpeedVac (Thermo) for LC-MS/MS analysis.
Peptides were dissolved in solvent A (0.1% FA in 2% ACN) and directly loaded onto a reversed-phase pre-column (Acclaim PepMap 100, Thermo Scientific). […] The resulting peptides were analysed by Q Exactive^TM Plus hybrid Quadrupole-Orbitrap Mass Spectrometer (ThermoFisher Scientific).
The peptides were subjected to NSI source followed by tandem mass spectrometry (MS/MS) in Q Exactive^TM Plus (Thermo) coupled online to the UPLC. Intact peptides were detected in the Orbitrap at a resolution of 70,000. Peptides were selected for MS/MS using 30% NCE; ion fragments were detected in the Orbitrap at a resolution of 17,500. A data-dependent procedure that alternated between one MS scan followed by […] was applied for the top 20 precursor ions above a threshold ion count of 5000 in the MS survey scan with 5.0 s dynamic exclusion. The electrospray voltage applied was 2.0 kV. Automatic gain control (AGC) was used to prevent overfilling of the ion trap; 5 E4 ions were accumulated for generation of MS/MS spectra. For MS scans, the m/z scan range was 350 to 1800.

FGFR1 = target: T6, FGFR1 (Homo sapiens, UniProt P11362); test: Eurofins Kinase Profiler panel; format: biochemical; settings: read-out: % inhibition (1μM), DMSO control=100%, lower=stronger
T6 construct: purchased Eurofins Pharma Discovery Services UK Limited (Kinase Profiler screening platform)

[4] = both sexes, Sprague Dawley, rat, iv 5.0 mg/kg, plasma
[5] = both sexes, Sprague Dawley, rat, plasma, iv 5.0 mg/kg
[6] = both sexes, Sprague Dawley, rat, plasma, po 10 mg/kg
[7] = both sexes, Sprague Dawley, rat, po 10 mg/kg, plasma

T2 sequence (P36888 27-993): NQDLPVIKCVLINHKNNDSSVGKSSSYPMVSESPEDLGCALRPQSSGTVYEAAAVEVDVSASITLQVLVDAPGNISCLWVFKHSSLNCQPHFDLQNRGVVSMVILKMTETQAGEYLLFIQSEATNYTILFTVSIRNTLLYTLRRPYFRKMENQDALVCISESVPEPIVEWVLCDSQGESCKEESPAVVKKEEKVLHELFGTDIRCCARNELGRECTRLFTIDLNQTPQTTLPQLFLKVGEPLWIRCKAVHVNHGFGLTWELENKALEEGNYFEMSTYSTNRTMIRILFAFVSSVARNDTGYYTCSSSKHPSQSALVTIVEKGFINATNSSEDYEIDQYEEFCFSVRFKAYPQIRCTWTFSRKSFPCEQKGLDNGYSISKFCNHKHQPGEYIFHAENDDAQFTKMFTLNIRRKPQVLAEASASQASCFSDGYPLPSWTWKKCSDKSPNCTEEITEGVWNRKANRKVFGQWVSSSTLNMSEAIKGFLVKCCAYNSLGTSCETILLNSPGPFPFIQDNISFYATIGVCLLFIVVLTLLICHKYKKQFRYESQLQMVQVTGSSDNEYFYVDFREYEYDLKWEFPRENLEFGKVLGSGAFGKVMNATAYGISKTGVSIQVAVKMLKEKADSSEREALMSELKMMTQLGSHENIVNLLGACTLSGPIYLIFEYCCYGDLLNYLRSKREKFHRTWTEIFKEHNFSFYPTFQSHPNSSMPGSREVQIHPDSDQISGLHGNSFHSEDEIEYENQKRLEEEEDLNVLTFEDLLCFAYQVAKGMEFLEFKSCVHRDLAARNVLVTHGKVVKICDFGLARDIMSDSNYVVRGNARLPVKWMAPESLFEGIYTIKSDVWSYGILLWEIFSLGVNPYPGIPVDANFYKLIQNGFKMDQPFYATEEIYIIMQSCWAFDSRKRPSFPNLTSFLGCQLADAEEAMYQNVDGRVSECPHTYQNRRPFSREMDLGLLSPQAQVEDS
T1 sequence (P15056 whole entry): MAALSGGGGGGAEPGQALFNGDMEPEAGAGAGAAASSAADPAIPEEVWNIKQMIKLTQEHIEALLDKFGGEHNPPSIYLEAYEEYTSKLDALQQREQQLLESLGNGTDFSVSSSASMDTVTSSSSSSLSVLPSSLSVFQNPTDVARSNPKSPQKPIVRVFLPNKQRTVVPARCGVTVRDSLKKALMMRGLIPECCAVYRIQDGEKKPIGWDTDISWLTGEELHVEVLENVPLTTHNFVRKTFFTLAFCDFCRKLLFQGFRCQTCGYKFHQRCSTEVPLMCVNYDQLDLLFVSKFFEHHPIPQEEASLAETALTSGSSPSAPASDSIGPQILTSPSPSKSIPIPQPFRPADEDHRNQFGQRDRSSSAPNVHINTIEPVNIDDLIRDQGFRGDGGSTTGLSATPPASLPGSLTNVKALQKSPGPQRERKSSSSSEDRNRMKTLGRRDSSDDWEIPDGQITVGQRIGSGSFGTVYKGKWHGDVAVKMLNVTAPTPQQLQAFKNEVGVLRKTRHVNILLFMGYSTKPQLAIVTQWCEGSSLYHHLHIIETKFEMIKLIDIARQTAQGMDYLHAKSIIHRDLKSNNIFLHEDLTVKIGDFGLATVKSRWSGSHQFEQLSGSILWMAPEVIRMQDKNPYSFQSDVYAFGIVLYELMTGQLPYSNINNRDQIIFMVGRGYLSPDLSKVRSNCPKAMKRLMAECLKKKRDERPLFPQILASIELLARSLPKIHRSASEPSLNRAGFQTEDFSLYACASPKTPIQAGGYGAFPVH
T6 sequence (P11362 22-822): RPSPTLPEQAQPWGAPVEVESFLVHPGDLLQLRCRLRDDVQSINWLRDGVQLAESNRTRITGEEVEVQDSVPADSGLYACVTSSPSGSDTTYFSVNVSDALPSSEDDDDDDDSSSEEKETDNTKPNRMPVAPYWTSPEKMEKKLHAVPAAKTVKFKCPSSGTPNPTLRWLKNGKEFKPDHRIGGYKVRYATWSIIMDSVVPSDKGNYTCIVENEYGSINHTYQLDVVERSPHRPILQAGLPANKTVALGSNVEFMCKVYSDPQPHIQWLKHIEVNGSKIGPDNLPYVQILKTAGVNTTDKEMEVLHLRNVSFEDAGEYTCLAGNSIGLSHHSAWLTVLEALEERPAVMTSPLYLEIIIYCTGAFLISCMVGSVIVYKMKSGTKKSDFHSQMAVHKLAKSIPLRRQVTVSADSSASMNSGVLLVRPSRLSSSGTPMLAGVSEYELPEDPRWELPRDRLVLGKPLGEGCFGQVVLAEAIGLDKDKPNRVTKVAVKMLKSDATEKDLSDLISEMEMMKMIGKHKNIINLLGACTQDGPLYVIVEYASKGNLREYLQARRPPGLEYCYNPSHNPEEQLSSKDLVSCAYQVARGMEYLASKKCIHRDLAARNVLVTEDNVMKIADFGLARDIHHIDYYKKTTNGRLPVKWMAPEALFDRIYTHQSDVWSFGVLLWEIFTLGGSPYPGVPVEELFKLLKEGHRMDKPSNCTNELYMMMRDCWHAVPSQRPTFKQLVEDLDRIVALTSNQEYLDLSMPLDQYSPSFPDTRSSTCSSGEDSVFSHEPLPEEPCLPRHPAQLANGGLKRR
T5 sequence (P06239 whole entry): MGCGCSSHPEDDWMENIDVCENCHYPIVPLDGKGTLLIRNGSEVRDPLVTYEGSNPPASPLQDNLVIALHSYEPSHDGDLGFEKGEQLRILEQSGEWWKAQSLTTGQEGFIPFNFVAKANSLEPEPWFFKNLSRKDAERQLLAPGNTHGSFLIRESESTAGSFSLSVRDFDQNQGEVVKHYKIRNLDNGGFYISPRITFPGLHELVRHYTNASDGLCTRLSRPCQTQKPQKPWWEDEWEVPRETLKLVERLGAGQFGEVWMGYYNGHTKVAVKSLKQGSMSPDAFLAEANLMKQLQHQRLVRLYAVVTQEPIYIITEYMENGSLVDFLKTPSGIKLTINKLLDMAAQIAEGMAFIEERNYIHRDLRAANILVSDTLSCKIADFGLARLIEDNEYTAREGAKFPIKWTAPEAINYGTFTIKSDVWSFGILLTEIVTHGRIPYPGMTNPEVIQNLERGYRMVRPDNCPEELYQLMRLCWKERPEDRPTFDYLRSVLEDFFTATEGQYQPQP
T4 sequence (P47809 2-397 limits assumed): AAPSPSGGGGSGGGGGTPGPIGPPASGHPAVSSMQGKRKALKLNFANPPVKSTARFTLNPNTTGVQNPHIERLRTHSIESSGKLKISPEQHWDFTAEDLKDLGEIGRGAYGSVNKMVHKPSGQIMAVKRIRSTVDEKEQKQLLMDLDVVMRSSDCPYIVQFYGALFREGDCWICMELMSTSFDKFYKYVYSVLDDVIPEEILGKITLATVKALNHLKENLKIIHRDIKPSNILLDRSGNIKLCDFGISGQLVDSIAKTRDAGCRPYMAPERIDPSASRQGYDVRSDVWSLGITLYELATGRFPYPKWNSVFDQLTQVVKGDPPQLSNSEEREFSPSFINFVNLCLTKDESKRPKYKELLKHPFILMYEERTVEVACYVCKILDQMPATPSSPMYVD

## C=CC(=O)N[C@@H]1CCCN(c2ncnc3[nH]ccc23)C1 [RB1]
[1]; [4]
  AUC(0-inf): 933 ng·h/mL
  AUC(0-t): 802 ng·h/mL
  Cmax: 1090 ng/mL
[1]; [5]
  Tmax: 0.08 h
  clearance: 97.7 mL/min/kg
  half-life: 14.6 h
[1]; both sexes, Sprague Dawley, rat, plasma, oral, 10 mg/kg, po 10 mg/kg vs iv 5.0 mg/kg, read-out: F (oral bioavailability)
  bioavailability: 72.5%
[1]; [6]
  Tmax: 0.25 h
  half-life: 6.9 h
[1]; [7]
  AUC(0-inf): 1310 ng·h/mL
  AUC(0-t): 1160 ng·h/mL
  Cmax: 309 ng/mL
[1]; iv 5.0 mg/kg
  V: 98.04 L/kg
[1]; po 10 mg/kg
  CL: 144 mL/min/kg
  V: 77.33 L/kg
[1]; po 10 mg/kg vs iv 5.0 mg/kg
  F (oral bioavailability): 72.5%
B-Raf
  activity at 1 µM: 90%
Flt3
  activity at 1 µM: 75%
JAK3 [2]
  activity at 1 µM: 0.9%
JAK3 [3]
  inhibition at 1 µM: 99.1%
MKK4
  activity at 1 µM: 114%
Lck
  activity at 1 µM: 80%
JAK3 (Cys909)
  covalent modification of JAK3 (Cys909-containing peptide): covalently modify JAK3 in an apparently irreversible manner
FGFR1
  activity at 1 µM: 80%
